Laboratory results taken from patent EP3502234B1, “ANAEROBIC AMMONIUM OXIDATION WITH PLANKTONIC CELLS IN A CONTINUOUS OR SEMI-CONTINUOUS STIRRED-TANK REACTOR” (priority 2017, dated 2019).

Assays:
[1] = tested on: anammox activity of reactor effluent; assay: Incubations of reactor effluent with effectors; anammox activity from headspace gas production rate; format: cell-based, "Ca. Kuenenia stuttgartiensis"; details: for IC50: 30°C
Method: 60 mL nitrogen-flushed glass bottles were anoxically filled with 50 mL reactor effluent and closed with butyl rubber septa and aluminum crimp caps. Effectors were anoxically added with sterile syringes through the septa or directly added to the bottles as powder. Except for the experiment in which nitrite was varied, 3 mM nitrite was added at time 0. Each bottle was directly connected to a MPX5100DP pressure sensor via a 0.41 mm Luer Lock needle. All sensors were electrically connected to a LabJack converter for data reading and storage. Pressure sensors were read every 3 seconds. In total, twelve such bottles were set up for each experiment, allowing the simultaneous testing of five different effector concentrations in duplicate plus two bottles as negative controls without effector.
Experiments were incubated for 24 hours after which 3 mL air was injected into each bottle for calibration of the pressure sensor readings. Gas production rates were calculated as mL per day across 1,000 consecutive data points (3,000 seconds). […] The same time frame was chosen for all twelve bottles in one experiment to calculate anammox activities from the slopes.
For that the reactor effluent was incubated in closed bottles and monitored the pressure build-up in the headspace over time. […] Legend: the number before the dash indicates the chloramphenicol concentration in mg L^-1, the number behind the dash indicates the number of the replicate. (A) Gas production; (B) Gas production rate calculated in a window of 1,000 consecutive data points (equivalent to 3,000 seconds).

[2] = tested on: anammox activity of "Ca. Kuenenia stuttgartiensis "; details: 1 g L^-1 chloramphenicol; cited from earlier work
[3] = tested on: anammox activity of "Ca. Kuenenia stuttgartiensis "; details: 20 mg L^-1 chloramphenicol, sequencing batch reactor, after 4 days; cited from earlier work
anammox activity = assay: Semi-CSTR reactor operation under critical conditions (pulse addition, reactor collapse); format: cell-based, "Ca. Kuenenia stuttgartiensis"; details: pulse of 0.2 mM Na2S added to the reactor
Method: The reactor effluent was collected in anoxic 2-liter bottles and stored in the dark at 4°C to be used later for inhibitor tests (see below) or as inoculum when the reactor collapsed. During one-year operation under experimental conditions, the reactor intentionally collapsed three times under three different critical conditions: 1) after the reactor was incubated for 24 h at 38.6°C without feeding nitrite, 2) after a pulse of 0.2 mM Na2S was added, and 3) after a pulse of 65 µM FeCl2 was added. […] After such reactor collapses, the reactor could be reproducibly regenerated with the stored eluent bottles. The activity in the effluent bottles was recovered, as judged from pressure production rates, within only 2 days when a bottle was warmed up to room temperature, spiked with 3 mM nitrite and incubated at 30°C. Effluent could be stored at 4°C for at least three months without startup delay.

[4] = tested on: "Ca. Kuenenia stuttgartiensis"; details: previous reports; cited from earlier work
[5] = reactor effluent, gas production rate normalized to controls without effector

CN(C)c1ccc2nc3ccc(=[N+](C)C)cc-3sc2c1 [methylene blue]
inhibition ([1]; 100 µg L^-1 methylene blue): 86%
inhibition of anammox activity ([1]; methylene blue 10 µg L^-1): no apparent inhibition
IC50 ([1]; reactor effluent, 3 mM nitrite): 0.053 mg/L

phosphate
anammox activity higher than in the controls at 1.5 mM ([1]; 6.5 mM phosphate): 11%
anammox activity preserved ([1]; highest tested concentration of 51.5 mM phosphate): 65%
increase of anammox activity ([1]; phosphate concentration increased from 1.5 mM to 3.5 mM): 16%
IC50 [1, 5]: > 51.5 mM

[Cl-].[Na+] [NaCl]
inhibition ([1]; 270 mM salt): 75%
salt concentrations that start to inhibit anammox activity ([1]; reactor effluent): 120 to 270 mM
inhibition ([1]; salt concentrations up to 120 mM): No apparent inhibition

O=C(N[C@H](CO)[C@H](O)c1ccc([N+](=O)[O-])cc1)C(Cl)Cl [chloramphenicol]
inhibition at 30 µg/mL ([1]; chloramphenicol 30 mg L^-1): 57%
IC50 ([1]; reactor effluent, 3 mM nitrite): 19 mg/L
inhibition [2]: no apparent inhibition
drop in reactor efficiency [3]: 25%
drop in specific anammox activity [3]: 75%

[Na+].[Na+].[S-2] [sulfide, Na2S]
IC50 ([1]; reactor effluent, 3 mM nitrite): 0.005 mM
inhibition of anammox activity ([1]; sulfide at 5 µM): severely inhibited
effect on the reactor (anammox activity): complete loss of the anammox activity

O=N[O-].[Na+] [nitrite, NaNO2]
inhibition ([1]; nitrite at 6 mM): 24%
inhibition ([1]; nitrite at 6 mM, as worded in the discussion): severe inhibition
IC50 [1, 5]: 9.6 mM
tolerant to nitrite [4]: 13 to 25 mM
